# Data as given in US7148193B2, “Compounds that bind to growth hormone receptor” (Antyra, Inc., priority 1997, dated 2006).
# Where a SMILES comes first, the peptide text is derived from it. Bridges are numbered along the chain shown (N, C = ends).
# Molecular target: T1, rat growth hormone receptor (Rattus norvegicus, UniProt P16310)
# T1 construct: expressed in transfected cells; host or cells: FDC-1 cells
# T1 sequence (P16310 19-638): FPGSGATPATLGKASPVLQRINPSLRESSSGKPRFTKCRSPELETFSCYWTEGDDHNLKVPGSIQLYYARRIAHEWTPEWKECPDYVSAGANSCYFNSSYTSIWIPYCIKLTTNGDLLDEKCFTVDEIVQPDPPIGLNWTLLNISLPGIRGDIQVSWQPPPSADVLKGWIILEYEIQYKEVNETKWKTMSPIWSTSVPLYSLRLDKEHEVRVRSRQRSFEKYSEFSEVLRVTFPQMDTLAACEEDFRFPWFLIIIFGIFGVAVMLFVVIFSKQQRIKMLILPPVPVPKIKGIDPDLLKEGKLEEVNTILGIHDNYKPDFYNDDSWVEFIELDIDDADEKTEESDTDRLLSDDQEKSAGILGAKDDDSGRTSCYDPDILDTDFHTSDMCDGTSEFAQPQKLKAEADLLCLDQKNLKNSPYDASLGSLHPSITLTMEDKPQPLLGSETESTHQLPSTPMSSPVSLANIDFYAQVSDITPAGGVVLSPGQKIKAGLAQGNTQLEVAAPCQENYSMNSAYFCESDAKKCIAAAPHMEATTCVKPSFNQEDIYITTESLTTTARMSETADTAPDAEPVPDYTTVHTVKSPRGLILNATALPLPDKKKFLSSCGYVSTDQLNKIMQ
# Experiment: Cell proliferation assay (WST-1) in FDC-1 cells stably transfected with rat growth hormone receptor
# Format: cell-based
# Conditions: 18 h
# Protocol: Cells transfected with rat GHR (50,000 cells per well) were incubated with either bovine GH, H5 peptide (SEQ ID NO:8), 447 peptide (SEQ ID NO:11) or control peptide (SEQ ID NO:10) for 18 h at 37° C. Experiments were done in triplicate. Background signal A450=0.15. […] Cells transfected with rat GHR (50,000 cells per well) containing […] bovine GH were incubated with either control peptide (SEQ ID NO:10), H5 peptide (SEQ ID NO:8) or 447 peptide (SEQ ID NO:11) for 18 h at 37° C. Proliferation was measured using WST-1 reagent. The “*” symbol corresponds to the A450 measurement for the cells incubated without GH.
# Agonistic and antagonistic activities of the two peptides, H5WT (SEQ ID NO:8) and bP#447 ([…]), were tested in FDC-1 cells stably transfected with the gene encoding the rat growth hormone receptor. The resulting cell line required either IL-3 or GH for growth. The cells were grown in RPMI 1640 medium containing 10% FCS (fetal calf serum) and 20 units of IL-3 per ml. […] activity assays were performed in a total volume of 100 μl in 96 well plates (flat bottom). Cells were seeded at 50,000 cells/well in 50 μl RPMI 1640 (without IL-3) medium containing horse serum instead of FCS to reduce background. To duplicate wells, 50 μl of either growth hormone or peptides at different concentrations was added, followed by incubation for 18 h in a CO2 incubator. Assays to measure the antagonistic activity were performed in a total volume of 100 μl in 96 well plates. Either H5WT peptide (SEQ ID NO:8), bP#447 peptide (SEQ ID NO:11), or control peptide (SEQ ID NO:10) was added to cells containing 0.003 μM of bovine GH and incubated at 37° C. for 18 h in a CO2 incubator. Proliferation assays were performed using WST-1 reagent. The WST-1 tetrazolium salt (light red color) is cleaved to formazan (dark red color) by the succinate-tetrazolium reductase system, which is active only in viable cells. […] Ten microliters of WST-1 reagent was added and the plates incubated for 1–4 h 37° C. Proliferation was measured by absorbance at 450 nm.
smiles,measurement,setting,value
CC(C)C[C@@H]1NC(=O)[C@H](CO)NC(=O)[C@H](CCC(N)=O)NC(=O)[C@@H](NC(=O)[C@H](CC(C)C)NC(=O)[C@H](CC(=O)O)NC(=O)[C@H](CCCCN)NC(=O)[C@H](Cc2ccc(O)cc2)NC(=O)[C@@H](N)CC(=O)O)CSSC[C@@H](C(=O)N[C@@H](C)C(=O)N[C@@H](CCCCN)C(=O)N[C@@H](CCCCN)C(=O)O)NC(=O)[C@H](Cc2c[nH]c3ccccc23)NC(=O)CNC(=O)[C@H](C)NC(=O)[C@H](CC(C)C)NC(=O)[C@H](Cc2c[nH]c3ccccc23)NC(=O)CNC(=O)[C@@H]2CCCN2C(=O)[C@H](Cc2ccc(O)cc2)NC(=O)[C@H]([C@@H](C)O)NC(=O)[C@H](C(C)C)NC(=O)CNC1=O [H5] (H-DYKDLCQSLGVTYPGWLAGWCAKK-OH; disulfide 6-21; N-terminus and C-terminus assumed),antagonistic activity,"cells with 0.003 μM bovine GH, at the concentrations tested",no antagonistic activity
same,agonistic activity,"no GH added, WST-1 A450",partial agonistic activity
